Legend:
Laodelphax striatellus [1] = assay: Insecticidal activity against susceptible Laodelphax striatella (small brown planthopper) assessed as mortality compound treated topically on dorsal side; format: functional; conditions: topical
Laodelphax striatellus [2] = assay: Ratio of LD50 for Laodelphax striatella Ibaraki (small brown planthopper) to LD50 for susceptible Laodelphax striatella; format: functional
Laodelphax striatellus [3] = assay: Insecticidal activity against Laodelphax striatella Ibaraki (small brown planthopper) assessed as mortality compound treated topically on dorsal side; conditions: topical
Laodelphax striatellus [4] = assay: Insecticidal activity against Laodelphax striatella Kumamoto (small brown planthopper) assessed as mortality compound treated topically on dorsal side; conditions: topical
Laodelphax striatellus [5] = assay: Ratio of LD50 for Laodelphax striatella Kumamoto (small brown planthopper) to LD50 for susceptible Laodelphax striatella; format: functional
Acetylcholinesterase [6] = molecular target: T1, Acetylcholinesterase (Laodelphax striatella, UniProt K4JQ36); assay: Inhibition of acetylcholinesterase in susceptible Laodelphax striatella (small brown planthopper) homogenate preincubated for 10 min before substrate addition measured after 10 min by Ellman method; parameters: species or system Laodelphax striatellus; conditions: read-out: I50
Acetylcholinesterase [7] = molecular target: T1, Acetylcholinesterase; assay: Inhibition of acetylcholinesterase in Laodelphax striatella Ibaraki (small brown planthopper) homogenate preincubated for 10 min before substrate addition measured after 10 min by Ellman method; parameters: species or system Laodelphax striatellus; conditions: read-out: I50
Acetylcholinesterase [8] = molecular target: T1, Acetylcholinesterase; assay: Inhibition of acetylcholinesterase in Laodelphax striatella Kumamoto (small brown planthopper) homogenate preincubated for 10 min before substrate addition measured after 10 min by Ellman method; parameters: species or system Laodelphax striatellus; conditions: read-out: I50
[9] = molecular target: Acetylcholinesterase (Laodelphax striatella) (UniProt K4JQ36); assay: Ratio of I50 of acetylcholinesterase in Laodelphax striatella Ibaraki (small brown planthopper) homogenate to I50 for acetylcholinesterase in susceptible Laodelphax striatella homogenate; conditions: Laodelphax striatellus
[10] = molecular target: Acetylcholinesterase (Laodelphax striatella) (UniProt K4JQ36); assay: Ratio of I50 of acetylcholinesterase in Laodelphax striatella Kumamoto (small brown planthopper) homogenate to I50 for acetylcholinesterase in susceptible Laodelphax striatella homogenate; conditions: Laodelphax striatellus
[11] = molecular target: T2, Carboxylesterase (Laodelphax striatella) (UniProt K4JRP7); assay: Ratio of activity of aliesterase in Laodelphax striatella Kumamoto (small brown planthopper) homogenate to activity of aliesterase in susceptible Laodelphax striatella homogenate; conditions: Laodelphax striatellus
T2 sequence (whole entry): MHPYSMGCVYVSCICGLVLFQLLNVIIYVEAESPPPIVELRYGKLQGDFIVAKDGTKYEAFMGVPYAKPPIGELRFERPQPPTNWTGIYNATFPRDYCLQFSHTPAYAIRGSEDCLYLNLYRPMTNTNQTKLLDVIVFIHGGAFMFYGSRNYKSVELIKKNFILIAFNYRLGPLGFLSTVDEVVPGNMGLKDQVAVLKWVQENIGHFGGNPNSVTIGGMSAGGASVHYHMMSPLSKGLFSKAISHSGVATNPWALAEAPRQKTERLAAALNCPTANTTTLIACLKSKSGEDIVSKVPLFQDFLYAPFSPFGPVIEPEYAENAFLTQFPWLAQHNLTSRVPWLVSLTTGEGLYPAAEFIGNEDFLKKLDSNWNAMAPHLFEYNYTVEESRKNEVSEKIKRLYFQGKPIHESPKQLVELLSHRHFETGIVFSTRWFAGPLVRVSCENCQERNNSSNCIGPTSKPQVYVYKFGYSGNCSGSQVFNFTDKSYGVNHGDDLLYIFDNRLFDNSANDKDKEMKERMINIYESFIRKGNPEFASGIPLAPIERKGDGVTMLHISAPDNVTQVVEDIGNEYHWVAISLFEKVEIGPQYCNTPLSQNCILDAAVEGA

[12] = molecular target: T2, Carboxylesterase (Laodelphax striatella); assay: Ratio of activity of aliesterase in Laodelphax striatella Ibaraki (small brown planthopper) homogenate to activity of aliesterase in susceptible Laodelphax striatella homogenate; conditions: Laodelphax striatellus
[13] = molecular target: T2, Carboxylesterase (Laodelphax striatella); assay: Activity of aliesterase in Laodelphax striatella Kumamoto (small brown planthopper) homogenate assessed per 10 min per ug protein after 10 min by van Asperen method; conditions: Laodelphax striatellus
[14] = molecular target: T2, Carboxylesterase (Laodelphax striatella); assay: Activity of aliesterase in Laodelphax striatella Ibaraki (small brown planthopper) homogenate assessed per 10 min per ug protein after 10 min by van Asperen method; conditions: Laodelphax striatellus
[15] = molecular target: T2, Carboxylesterase (Laodelphax striatella); assay: Activity of aliesterase in susceptible Laodelphax striatella (small brown planthopper) homogenate assessed per 10 min per ug protein after 10 min by van Asperen method; conditions: Laodelphax striatellus

Acetylcholinesterase (Laodelphax striatella), sequence (K4JQ36 1-426): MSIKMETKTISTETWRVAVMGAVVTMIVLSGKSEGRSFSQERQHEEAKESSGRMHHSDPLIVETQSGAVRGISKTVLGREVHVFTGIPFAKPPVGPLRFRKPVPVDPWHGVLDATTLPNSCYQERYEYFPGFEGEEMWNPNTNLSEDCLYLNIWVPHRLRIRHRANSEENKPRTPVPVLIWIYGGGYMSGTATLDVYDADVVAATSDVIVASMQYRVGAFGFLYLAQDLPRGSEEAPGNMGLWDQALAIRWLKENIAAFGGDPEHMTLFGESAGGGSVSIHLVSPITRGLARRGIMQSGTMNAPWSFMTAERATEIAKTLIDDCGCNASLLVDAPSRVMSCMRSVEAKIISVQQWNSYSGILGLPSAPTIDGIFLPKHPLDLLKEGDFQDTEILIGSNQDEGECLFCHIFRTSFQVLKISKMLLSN
T1 sequence (K4JQ36 whole entry): as the sequence (K4JQ36 1-426) above

SMILES | LD50 (Laodelphax striatellus [1]) [mg/kg] | Ratio (Laodelphax striatellus [2]) | LD50 (Laodelphax striatellus [3]) [mg/kg] | LD50 (Laodelphax striatellus [4]) [mg/kg] | Ratio (Laodelphax striatellus [5]) | IC50 (Acetylcholinesterase [6]) [nM] | IC50 (Acetylcholinesterase [7]) [nM] | IC50 (Acetylcholinesterase [8]) [nM] | further results
O=[N+]([O-])/N=C1\NCCN1Cc1ccc(Cl)nc1 [IMIDACLOPRID] | 0.26 | 1 | 0.26 | 0.61 | 2.3 |  |  |  | 
CCCCN(CCCC)SN(C)C(=O)Oc1cccc2c1OC(C)(C)C2 [CARBOSULFAN] | 2.2 |  |  | 42 | 19 |  |  |  | 
CCOc1ccc(C(C)(C)COCc2cccc(Oc3ccccc3)c2)cc1 [ETOFENPROX] | 1.6 | 1.1 | 1.7 | 2.7 | 1.7 |  |  |  | 
CNC(=O)Oc1cccc2ccccc12 [CARBARIL] |  |  |  |  |  | 48 | 48 | 310 | 
CCOP(=O)(OCC)Oc1cc(C)nc(C(C)C)n1 [DIAZOXON] |  |  |  |  |  | 170 | 190 | 400 | Ratio [9]: 1.1; Ratio [10]: 2.4
CCOP(=S)(OCC)Oc1cc(C)nc(C(C)C)n1 [DIMPYLATE] | 8.5 | 3.3 | 28 | 74 | 8.7 |  |  |  | 
CC(=O)Oc1cccc2ccccc12 |  |  |  |  |  |  |  |  | Ratio [11]: 4.3; Ratio [12]: 4.1; Activity [13]: 29 nmol; Activity [14]: 27 nmol; Activity [15]: 6.6 nmol
COP(=O)(OC)Oc1ccc([N+](=O)[O-])c(C)c1 [FENITROXON] |  |  |  |  |  | 350 | 360 | 730 | Ratio [9]: 1; Ratio [10]: 2.1
CC(C)C(C(=O)OC(C#N)c1cccc(Oc2ccccc2)c1)c1ccc(Cl)cc1 (centres undefined) [FENVALERATE] | 1.4 | 1.4 | 1.9 |  |  |  |  |  | 
COP(=S)(OC)Oc1ccc([N+](=O)[O-])c(C)c1 [FENITROTHION] | 6.4 | 4.2 | 27 | 38 | 5.9 |  |  |  | 
CCC(C)c1ccccc1OC(=O)NC (centres undefined) [FENOBUCARB] | 18 | 1.8 | 33 | 320 | 18 | 29 | 26 | 140 | Ratio [9]: 0.9; Ratio [10]: 4.8
CNC(=O)Oc1cccc2c1OC(C)(C)C2 [CARBOFURAN] | 0.51 | 3.3 | 1.7 | 20 | 39 |  |  |  | 
CCOC(=O)CC(SP(=S)(OC)OC)C(=O)OCC (centres undefined) [MALATHION] | 22 | 5.9 | 130 | 380 | 17 |  |  |  | 

Source: ChEMBL document CHEMBL3044954, “Insecticide Resistance and Insensitive Acetylcholinesterase in Small Brown Planthopper, Laodelphax striatellus” (J Pestic Sci, 2000)
